What all share (type): functional
The subject of test [1] is Digitaria sanguinalis. Description: Herbicidal activity against Digitaria sanguinalis (hairy crabgrass) in cucumber plants fields exposed to 120 L/ha compound fumigation treatment assessed as hand weeding time per plot (reference value: 258.3 hr/ha).
For the next test, the system named is Capsella bursa-pastoris. The experiment in a line: Herbicidal activity against Capsella bursa-pastoris in cucumber plants fields exposed to 120 L/ha compound fumigation treatment assessed as hand weeding time per plot relative to untreated control.
The next test concerns Solanum lycopersicum. Description: Increase in crop yield in Cucumis sativus (cucumber) plants exposed to 180 L/ha compound fumigation treatment assessed as marketable yield fruit yield (reference value: 65.3 ton/ha).
For test [2], the system named is Digitaria sanguinalis. Description: Herbicidal activity against Digitaria sanguinalis (hairy crabgrass) in cucumber plants fields exposed to 120 L/ha compound fumigation treatment assessed as hand weeding time per plot relative to untreated control.
Test [3] has as its system Arenaria serpyllifolia. Description: Herbicidal activity against Arenaria serpyllifolia in tomato plants fields exposed to 120 L/ha compound fumigation treatment assessed as hand weeding time per plot (reference value: 243.3 hr/ha).
Test [4] has as its system Arenaria serpyllifolia. Description: Herbicidal activity against Arenaria serpyllifolia in cucumber plants fields exposed to 90 L/ha compound fumigation treatment assessed as hand weeding time per plot relative to untreated control.

Regarding `Cl/C=C/CCl` [1,3-DICHLOROPROPENE], the Time with Digitaria sanguinalis [1] turned out to be 74.4 hr/ha; in the test with Arenaria serpyllifolia [3], 66.4 hr/ha. Moreover, the Activity with Capsella bursa-pastoris, in the test with Digitaria sanguinalis [2] and in the test on Arenaria serpyllifolia [4] was 45% each time. The Crop_yield in the test with Solanum lycopersicum worked out at 98.8 tons/ha.

For the origin of these results see ChEMBL document CHEMBL3046912, “Effectiveness of 1,3-dichloropropene as an alternative to methyl bromide in rotations of tomato (Solanum lycopersicum) and cucumber (Cucumis sativus) in China” (2012).
